Legend:
[1] = Crystal
[2] = Molar enthalpy of transition or fusion; settings: Crystal; Adiabatic calorimetry
[3] = molar heat capacity at constant pressure; settings: 101.33 kPa, Liquid, Vacuum adiabatic calorimetry

CCCCCCCC[n+]1ccn(C)c1.F[B-](F)(F)F [1-methyl-3-octylimidazolium tetrafluoroborate]
Settings	Molar enthalpy of transition or fusion [kcal/mol]	Triple point temperature [K]
[1]	–	245.75
[2]	3.513	–

[3]
Settings	molar heat capacity at constant pressure [J/K/mol]
195.88 K	466.3
197.4 K	465.8
198.93 K	465.5
200.46 K	464.9
202.1 K	464.6
203.86 K	464.1
205.61 K	463.8
207.37 K	463.5
209.14 K	463.2
210.91 K	463.2
212.69 K	463.2
214.47 K	463.2
216.25 K	463.5
218.04 K	463.5
218.59 K	463.5
219.83 K	463.8
220.61 K	463.8
221.62 K	464.1
222.57 K	464.1
223.42 K	464.4
224.52 K	464.6
225.22 K	464.6
226.48 K	464.9
227.02 K	464.9
228.43 K	465.5
228.83 K	465.5
230.39 K	466.1
230.63 K	466.3
232.35 K	466.3
234.3 K	466.6
236.26 K	467.5
238.22 K	468
240.18 K	468.6
242.14 K	469.4
244.1 K	470.3
246.06 K	470.8
247.53 K	471.7
248.02 K	471.7
249.36 K	472.5
249.99 K	472.5
251.18 K	473.1
251.95 K	473.4
253 K	473.7
253.91 K	474.2
254.83 K	474.5
255.87 K	475.1
256.65 K	475.4
257.83 K	476.2
258.48 K	476.2
260.3 K	477.3
262.13 K	478.2
263.95 K	479
265.78 K	480.1
267.6 K	481
269.43 K	482.1
271.26 K	483
273.08 K	483.8
274.91 K	484.6
276.74 K	486.1
278.57 K	486.9
280.39 K	488
282.22 K	488.9
284.05 K	490
285.87 K	490.8
287.7 K	492
289.53 K	493.1
291.35 K	494.2
293.18 K	495.1
295 K	496.2
296.83 K	497.3
298.65 K	498.2
300.48 K	499.3
302.36 K	500.4
304.29 K	501.6
306.22 K	502.7
308.16 K	503.8
310.09 K	504.9
312.02 K	505.8
313.95 K	507.2
315.89 K	508.3
317.82 K	509.4
319.75 K	510.6
321.68 K	512
323.62 K	513.1
325.55 K	514.2
327.48 K	515.1
329.41 K	516.5
331.34 K	517.9
333.27 K	519.3
335.19 K	520.4
337.12 K	521.8
339.05 K	523
340.97 K	524.4
342.9 K	525.5
344.82 K	526.6
346.75 K	528
348.68 K	529.5
350.6 K	530.9
352.53 K	532.3
354.45 K	533.4
356.38 K	534.8
358.3 K	535.9
360.22 K	537.3
362.14 K	539
364.06 K	539.9
365.98 K	541.3
367.89 K	542.7

— the NIST ThermoML archive (doi:10.1021/je900974u)
